Source: ChEMBL document CHEMBL3608302, “Identification of 2-aminopyrimidine derivatives as inhibitors of the canonical Wnt signaling pathway” (Bioorg Med Chem, 2015)
≈ marks a conversion by molar mass, not a printed value.

Legend:
[1] = Inhibition of canonical Wnt pathway in human DBTRG-05-MG cells after 36 hrs by TCF-luciferase and TA-renilla dual-luciferase reporter assay; format: cell-based
[2] = Solubility of the compound at pH 3 to 7.4 after 24 hrs; format: physicochemical; settings: buffer; for solubility: pH 3, 24 h; for solubility at 24 h: pH 3
CYP3A4 = CYP3A4 (Homo sapiens, UniProt P08684); test: Metabolic stability of in DMSO solution assessed as human CYP3A4-mediated drug degdaradtion by measuring compound remaining at 1 uM after 1 hr in presence of human CYP3A4 and NADPH; format: ADME; settings: human CYP3A4 enzyme, read-out: Stability
[3] = Permeability of the compound by PAMPA; format: physicochemical; settings: read-out: permeability
[4] = Homo sapiens, DBTRG-05MG, 36 h, read-out: IC50

Chain of CYP3A4 (P08684 whole entry): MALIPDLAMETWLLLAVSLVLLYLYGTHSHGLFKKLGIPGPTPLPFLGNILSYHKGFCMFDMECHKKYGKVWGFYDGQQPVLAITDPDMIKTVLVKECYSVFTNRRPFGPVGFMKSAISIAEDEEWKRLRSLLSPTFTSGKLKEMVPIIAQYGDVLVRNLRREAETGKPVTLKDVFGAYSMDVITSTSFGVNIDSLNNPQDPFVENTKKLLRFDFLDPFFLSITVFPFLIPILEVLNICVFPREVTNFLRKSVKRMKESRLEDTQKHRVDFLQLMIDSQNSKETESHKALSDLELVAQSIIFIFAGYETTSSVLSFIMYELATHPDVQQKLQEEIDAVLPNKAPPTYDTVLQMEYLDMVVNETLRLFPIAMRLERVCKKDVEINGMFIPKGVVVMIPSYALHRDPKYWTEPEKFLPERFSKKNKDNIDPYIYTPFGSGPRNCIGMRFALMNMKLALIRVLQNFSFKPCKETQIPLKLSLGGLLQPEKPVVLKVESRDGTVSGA

Structure (SMILES)	IC50 [1, 4]	solubility [2]	remaining at 1 h, 1 µM (CYP3A4)	IC50 [1]	solubility at 24 h [2]	Papp [3]
Cc1cc(-c2cnc(NC(C)C)nc2C2CCN(C(=O)c3ccc(C)s3)CC2)on1	8.05 µM	Insoluble	< 20%			
CC(=O)N1CCC(c2nc(N3CCCC3)ncc2-c2cc(C)no2)CC1			59%	Not Active	207 µM (≈ 73.6 µg/mL)	> 10 ×10⁻⁶ cm/s
CC(=O)N1CCC(c2nc(N3CCN(C)CC3)ncc2-c2cc(C)no2)CC1			100%	Not Active	225 µM (≈ 86.5 µg/mL)	2 ×10⁻⁶ cm/s
CC(=O)N1CCC(c2nc(N3CCOCC3)ncc2-c2cc(C)no2)CC1	10.6 µM		75%		211 µM (≈ 78.4 µg/mL)	> 10 ×10⁻⁶ cm/s
CC(=O)N1CCC(c2nc(NCc3cccnc3)ncc2-c2cc(C)no2)CC1			< 20%		238 µM (≈ 93.4 µg/mL)	2 ×10⁻⁶ cm/s
CC(=O)N1CCC(c2nc(NCc3ccccn3)ncc2-c2cc(C)no2)CC1			27%	Not Active	221 µM (≈ 86.7 µg/mL)	2 ×10⁻⁶ cm/s
CC(=O)N1CCC(c2nc(NC(C)C)ncc2-c2cc(C)no2)CC1			75%	Not Active	224 µM (≈ 76.9 µg/mL)	> 10 ×10⁻⁶ cm/s
CC(=O)N1CCC(c2nc(NCc3ccc(F)cc3)ncc2-c2cc(C)no2)CC1		Insoluble	< 20%	Not Active		> 10 ×10⁻⁶ cm/s
COCCNc1ncc(-c2cc(C)no2)c(C2CCN(C(C)=O)CC2)n1			84%	Not Active	233 µM (≈ 83.7 µg/mL)	2 ×10⁻⁶ cm/s

Next, values leading:

IC50 [1, 4]	solubility [2]	remaining at 1 h, 1 µM (CYP3A4)	IC50 [1]	solubility at 24 h [2]	Papp [3]	Structure (SMILES)
8.5 µM	Insoluble	< 20%				Cc1cc(-c2cnc(N3CCOCC3)nc2-c2ccc(C)s2)on1
	Insoluble	< 20%	Not Active			Cc1cc(-c2cnc(N3CCCC3)nc2-c2ccc(C)s2)on1
		51%	Not Active	11 µM (≈ 3.91 µg/mL)	> 10 ×10⁻⁶ cm/s	Cc1cc(-c2cnc(N3CCN(C)CC3)nc2-c2ccc(C)s2)on1
14.1 µM	Insoluble	< 20%				Cc1cc(-c2cnc(N3CC(C)OC(C)C3)nc2-c2ccc(C)s2)on1 (stereo not drawn)
17.6 µM		< 20%		1 µM (≈ 0.363 µg/mL)		Cc1cc(-c2cnc(NCc3cccnc3)nc2-c2ccc(C)s2)on1
13.9 µM		< 20%		1 µM (≈ 0.363 µg/mL)		Cc1cc(-c2cnc(NCc3ccccn3)nc2-c2ccc(C)s2)on1
	Insoluble	20%	Not Active			Cc1cc(-c2cnc(NC(C)C)nc2-c2ccc(C)s2)on1
	Insoluble	29%	Not Active			Cc1cc(-c2cnc(NCc3ccc(F)cc3)nc2-c2ccc(C)s2)on1
	Insoluble	27%	Not Active		> 10 ×10⁻⁶ cm/s	COCCNc1ncc(-c2cc(C)no2)c(-c2ccc(C)s2)n1
